Values quoted from earlier work in patent US12070440B2, “Topical formulations of nitroglycerin” (PERMEATUS, INC., priority 2022, dated 2024).
Where two headings read alike, the source gives them in different places.

Q: Which results are given for O=[N+]([O-])OCC(CO[N+](=O)[O-])O[N+](=O)[O-] [nitroglycerin, 1,2,3-trinitroxypropane]?
A: decomposition by denitration to 1,2-GDN (acidic environment (0.1N HCl)): faster; decomposition by denitration to 1,2-GDN (pH 7.4): slow; decomposition by denitration to 1,2-GDN (pH values of 11 and above): rapid
